One assay has as its target T1, iPLA2β (Homo sapiens, UniProt O60733).
T1 sequence (O60733 1-806): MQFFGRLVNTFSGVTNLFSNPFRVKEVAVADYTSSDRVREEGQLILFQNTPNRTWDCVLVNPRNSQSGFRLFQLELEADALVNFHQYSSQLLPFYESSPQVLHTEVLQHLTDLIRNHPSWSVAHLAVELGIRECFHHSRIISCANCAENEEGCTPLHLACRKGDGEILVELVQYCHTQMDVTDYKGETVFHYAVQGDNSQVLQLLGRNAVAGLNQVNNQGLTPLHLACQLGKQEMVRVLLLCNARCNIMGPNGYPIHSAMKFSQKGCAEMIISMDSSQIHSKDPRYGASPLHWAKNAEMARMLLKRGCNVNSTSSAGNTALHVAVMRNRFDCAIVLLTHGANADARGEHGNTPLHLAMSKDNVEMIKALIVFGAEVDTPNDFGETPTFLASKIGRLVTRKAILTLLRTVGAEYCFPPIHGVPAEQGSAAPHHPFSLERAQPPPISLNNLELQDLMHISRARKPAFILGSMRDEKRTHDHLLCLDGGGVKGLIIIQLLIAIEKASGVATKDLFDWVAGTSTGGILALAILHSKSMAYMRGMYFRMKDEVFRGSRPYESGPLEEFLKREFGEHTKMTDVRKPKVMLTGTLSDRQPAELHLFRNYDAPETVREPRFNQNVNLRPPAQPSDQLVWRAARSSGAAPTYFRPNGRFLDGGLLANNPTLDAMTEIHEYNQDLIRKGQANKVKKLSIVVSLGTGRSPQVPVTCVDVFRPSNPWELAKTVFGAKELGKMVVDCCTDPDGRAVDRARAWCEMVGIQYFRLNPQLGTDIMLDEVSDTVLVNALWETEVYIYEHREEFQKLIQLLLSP
Conditions: previously demonstrated; cited from earlier work.

Another assay relates to 3T3-L1 cells. Briefly: TAG accumulation during hormone-induced differentiation of 3T3-L1 cells (ESI/MS). The format is cell-based. To be noted: 5, 10 μM BEL for 4 days, day 8, ESI/MS, FIG. 6. The protocol: FIG. 5. Effects of siRNAs directed against iPLA2β or iPLA2γ on TAG accumulation during 3T3-L1 cell differentiation. 3T3-L1 cells were cultured and transfected with 20 nM negative control siRNA, siRNA directed against iPLA2β, or siRNA directed against iPLA2γ prior to induction to differentiation as described in “Test Procedures.” 3T3-L1 cells were grown to day 8 and the cell monolayer was washed with ice-cold PBS and scraped into 1 mL 50 mM LiCl. The lipids were extracted by the method of Bligh-Dyer^(33) in the presence of an internal standard (Tril7:0TAG, 200 nmol/mg protein). Mass spectral analysis of TAG was performed by ESI/MS as described in “Test Procedures.” ESI/MS spectra of TAG of day 8 3T3-L1 cells with pretreatment of negative control siRNA (A), siRNA directed against iPLA2β (B) or siRNA directed against iPLA2γ (C) were shown. The results of TAG quantification (D) represent means ±S.E.M. of at least three independent cultures.
FIG. 6. Effects of BELs on TAG accumulation during hormone-induced differentiation of 3T3-L1 cells. 3T3-L1 cells on two days post confluent were washed three times with DMEM, incubated at 37° C. for 20 min in DMEM with 0, 5, 10 μM racemic, R-, or S-BEL. The cells were induced to differentiate as described in “Test Procedures” in the presence of indicated concentrations of BELs for 4 days. […]

Another assay has as its system iPLA2. The assay is described as follows: Phospholipase A2 (iPLA2) activity assay in day 8 3T3-L1 cell homogenates with radiolabelled POPC. The format is biochemical. To be noted: 10 μM BEL, 3 min preincubation, day 8 cell homogenate, FIG. 3B. Here is the method:
FIG. 3. Activities of PLA2 in 3T3-L1 cells during differentiation and their inhibition by BELs. 3T3-L1 cells were cultured and induced to differentiation as described in “Test Procedures.” At indicated differentiation stages, cell homogenates were prepared as described in “Test Procedures.” Phospholipase A2 activity was assessed by incubating 3T3-L1 cell protein (100-200 μg) with radiolabelled 1-palmitoyl-2-[1-^14C]-oleoyl-sn-glycerol-3-phosphocholine (POPC) (50 mCi/mmol, 5 μM final concentration, introduced by ethanol injection (2 μL)) in assay buffer (final conditions: 100 mM Tris-HCl, 4 mM EGTA, pH=7.2) at 37° C. for 30 min in a final volume of 200 μL. Reactions were quenched by addition of butanol (100 μL). 30 microliters of the organic phase was spotted on a Whatman silica plate which was developed with a nonpolar acidic mobile phase (100 mL of 70/30/1 petroleum ether/ethyl ether/acetic acid). Spots corresponding to fatty acids were scrapped into scintillation vials and radioactivity was quantified by scintillation spectrometry as described previously. A, iPLA2 activities of 3T3-L1 cells during differentiation. B, iPLA2 activities of homogenates of day 8 3T3-L1 cells after incubation at room temperature for 3 minutes in the absence or presence of 10 μM of (R)-BEL, (S)-BEL or racemic BEL.
On the day of the test, the media of 3T3-L1 cells at different stages of differentiation were removed. The cells were washed briefly with PBS and detached by incubation in trypsin-EDTA (0.25% w/v) at 37° C. for […]. The cells were washed again with 5 volumes of CMRL-1066, transferred to a 50 mL Falcon centrifuge tube and centrifuged for 5 min at 1700 rpm at 4° C. […] Briefly, phospholipase A2 activity was assessed by incubating 3T3-L1 cell protein (100-200 μg) with radiolabelled phosphatidylcholine, L-α-palmitoyl-2-oleoyl [oleoyl-1-^14C] […] Spots corresponding to fatty acids were scrapped into scintillation vials and radioactivity was quantified by scintillation spectrometry as described previously^(32). […]

In a further assay the target is T2, iPLA2γ (Homo sapiens, UniProt Q9NP80).
T2 sequence (Q9NP80 1-782): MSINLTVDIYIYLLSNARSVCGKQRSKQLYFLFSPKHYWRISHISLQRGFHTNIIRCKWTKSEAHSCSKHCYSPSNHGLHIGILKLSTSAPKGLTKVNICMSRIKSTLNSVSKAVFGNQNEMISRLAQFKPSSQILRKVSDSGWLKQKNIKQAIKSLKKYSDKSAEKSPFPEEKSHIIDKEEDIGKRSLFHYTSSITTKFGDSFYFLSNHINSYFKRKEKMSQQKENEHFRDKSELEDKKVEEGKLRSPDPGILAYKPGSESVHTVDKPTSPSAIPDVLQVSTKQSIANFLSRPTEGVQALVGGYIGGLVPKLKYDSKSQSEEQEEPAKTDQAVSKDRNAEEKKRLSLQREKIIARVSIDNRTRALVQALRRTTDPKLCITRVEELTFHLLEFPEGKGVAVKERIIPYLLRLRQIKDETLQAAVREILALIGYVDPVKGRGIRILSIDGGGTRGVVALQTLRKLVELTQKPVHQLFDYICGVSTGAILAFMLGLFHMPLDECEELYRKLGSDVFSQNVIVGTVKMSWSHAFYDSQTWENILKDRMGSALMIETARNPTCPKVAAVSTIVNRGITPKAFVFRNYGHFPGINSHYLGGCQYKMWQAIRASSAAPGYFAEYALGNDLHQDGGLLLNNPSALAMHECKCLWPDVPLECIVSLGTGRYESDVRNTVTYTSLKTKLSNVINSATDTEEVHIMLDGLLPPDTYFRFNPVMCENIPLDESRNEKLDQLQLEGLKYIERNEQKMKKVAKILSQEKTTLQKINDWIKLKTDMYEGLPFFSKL
To be noted: previously demonstrated; cited from earlier work.

The structures appear in SMILES notation.

As to `O=C1O/C(=C/Br)CC[C@H]1c1cccc2ccccc12` [(S)-BEL], the “selectivity for iPLA2β in comparison to iPLA2γ” value at iPLA2β was “approximately one order of magnitude”. For the same compound, in the assay with 3T3-L1 cells, the “adipocyte differentiation (TAG accumulation) with BEL” value is “substantially decreased”. In addition, the “inhibition of measured iPLA2 activity in 3T3-L1 adipocyte homogenate” value (“inhibition of measured iPLA2 activity” below) in the assay with iPLA2 is given as “inhibited to similar levels”.

Consider `O=C1O/C(=C/Br)CCC1c1cccc2ccccc12` (racemic) [racemic BEL], for which the “inhibition of measured iPLA2 activity” value in the assay on iPLA2 was “inhibited”.

For `O=C1O/C(=C/Br)CC[C@@H]1c1cccc2ccccc12` [(R)-BEL], the “selectivity for iPLA2γ” value on iPLA2γ is “approximately an order of magnitude”. Besides, the “adipocyte differentiation (TAG accumulation) with BEL” value in the assay on 3T3-L1 cells is reported as “substantially decreased”. Further, the “inhibition of measured iPLA2 activity” value with iPLA2 is on record as “inhibited to similar levels”.

Values taken from patent US20050208031A1, “Inhibition of calcium-independent phospholipases A2beta or A2gamma inhibit hormone-induced differentiation of 3T3-L1 preadipocytes” (priority 2003, published 2005).
